Test results published in the supplement of paper PMC10331698.
± gives the standard deviation of the averaged measurements.

How the values were obtained:
Experiment in all cases: level (log10 ratio to DMSO vehicle control); higher = higher biomarker level / cell amount than vehicle control
Conditions in all cases: in DMSO
[1] = compound: C=C(C)C(=O)OCC(F)(F)C(F)(F)C(F)(F)C(F)(F)C(F)(F)C(F)(F)C(F)(F)F
Procedure: (§1)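 BioMAP Diversity Plus panel of 12 human primary cell co-culture systems (3C, 4H, LPS, SAg, BT, BF4T, BE3C, CASM3C, HDF3CGF, KF3CT, MyoF, Mphg). Compounds were added 1 h before stimulation and left for 24 h (MyoF 48 h; BT 72 h for soluble read-outs or 6 d for IgG). Biomarkers were read by ELISA, cytotoxicity by SRB, PBMC viability and proliferation by Alamar Blue. Each well value was divided by the mean of 8 DMSO control wells on the same plate and log10 transformed; duplicate blinded samples were tested at 4 concentrations.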

1-(Perfluorohexyl)octane = compound: CCCCCCCCC(F)(F)C(F)(F)C(F)(F)C(F)(F)C(F)(F)C(F)(F)F [1-(Perfluorohexyl)octane]
Procedure: as §1

Perfluorohexanoic acid = compound: O=C(O)C(F)(F)C(F)(F)C(F)(F)C(F)(F)C(F)(F)F [Perfluorohexanoic acid]
Procedure: as §1

[2] = compound: O=C(O)C(F)(F)OC(F)(F)C(F)(F)OC(F)(F)C(F)(F)C(F)(F)C(F)(F)F [Perfluoro-3,6-dioxadecanoic acid]
Procedure: as §1

[3] = compound: O=P(O)(O)CCC(F)(F)C(F)(F)C(F)(F)C(F)(F)C(F)(F)C(F)(F)C(F)(F)C(F)(F)F [((Perfluorooctyl)ethyl)phosphonic acid]
Procedure: as §1

[4] = compound: O=S(=O)(O)C(F)(F)C(F)(F)C(F)(F)C(F)(F)C(F)(F)C(F)(F)C(F)(F)C(F)(F)F [Potassium perfluorooctanesulfonate]
Procedure: as §1

[5] = compound: OCC(F)(F)C(F)(F)C(F)(F)C(F)(F)C(F)(F)C(F)F [1H,1H,7H-Dodecafluoro-1-heptanol]
Procedure: as §1

Test System | level (log10) ([1]; 6700 nM) | level (log10) ([1]; 20000 nM) | level (log10) (1-(Perfluorohexyl)octane; 6700 nM) | level (log10) (1-(Perfluorohexyl)octane; 20000 nM) | level (log10) (Perfluorohexanoic acid; 6700 nM) | level (log10) (Perfluorohexanoic acid; 20000 nM) | level (log10) (Perfluorohexanoic acid; 60000 nM) | level (log10) ([2]; 6700 nM) | level (log10) ([2]; 20000 nM) | level (log10) ([2]; 60000 nM) | level (log10) ([3]; 6700 nM) | level (log10) ([3]; 20000 nM) | level (log10) ([3]; 60000 nM) | level (log10) ([4]; 6700 nM) | level (log10) ([4]; 20000 nM) | level (log10) ([4]; 60000 nM) | level (log10) ([5]; 6700 nM) | level (log10) ([5]; 20000 nM) | level (log10) ([5]; 60000 nM)
LPS:CCL2/MCP-1 | 0.007 ± 0.0071 | 0.017 ± 0.0085 | 0.006 ± 0.021 | 0.017 ± 0.013 | -0.0035 ± 0.00071 | -0.008 ± 0.027 | -0.0045 ± 0.018 | 0.008 ± 0.0085 | 0.0005 ± 0.0078 | -0.042 ± 0.05 | -0.0075 ± 0.005 | -0.0255 ± 0.0092 | -0.046 ± 0.016 | 0.0025 ± 0.0021 | 0.007 ± 0.016 | 0.039 ± 0.0057 | 0.002 ± 0.0014 | -0.0125 ± 0.0078 | -0.0005 ± 0.018
LPS:CD40 | -0.03 ± 0.024 | -0.0145 ± 0.021 | -0.0355 ± 0.079 | -0.0205 ± 0.049 | 0.041 ± 0.096 | 0.038 ± 0.13 | 0.0215 ± 0.14 | -0.0125 ± 0.0078 | -0.0265 ± 0.023 | -0.14 ± 0.055 | -0.042 ± 0.041 | -0.0535 ± 0.00071 | -0.148 ± 0.0035 | -0.062 ± 0.052 | -0.055 ± 0.014 | -0.062 ± 0.016 | -0.0085 ± 0.03 | 0.026 ± 0.023 | -0.013 ± 0.038
LPS:CD62E/E-Selectin | -0.021 ± 0.018 | 0.0025 ± 0.0035 | -0.005 ± 0.031 | 0.0115 ± 0.029 | -0.01 ± 0.0042 | -0.0065 ± 0.012 | -0.003 ± 0.0028 | 0.008 ± 0.034 | 0.006 ± 0.04 | 0.024 ± 0.04 | 0.0085 ± 0.018 | -0.0145 ± 0.015 | -0.012 ± 0.0057 | 0.0005 ± 0.037 | 0.0035 ± 0.00071 | 0.0205 ± 0.00071 | 0.0045 ± 0.0064 | -0.005 ± 0.013 | -0.009 ± 0.014
LPS:CD69 | -0.0065 ± 0.069 | 0.0095 ± 0.067 | -0.012 ± 0.061 | 0.007 ± 0.038 | 0.0025 ± 0.0078 | -0.0165 ± 0.0021 | -0.0295 ± 0.013 | -0.009 ± 0.0099 | -0.0425 ± 0.026 | -0.191 ± 0.088 | -0.04 ± 0.0042 | -0.032 ± 0.018 | -0.0305 ± 0.023 | -0.0315 ± 0.012 | -0.046 ± 0.0057 | -0.0205 ± 0.039 | -0.002 ± 0.096 | -0.0005 ± 0.076 | 0.0005 ± 0.079
LPS:CD106/VCAM-1 | -0.021 ± 0.05 | -0.0085 ± 0.046 | 0.001 ± 0.0057 | 0.017 ± 0.0085 | -0.0025 ± 0.0035 | -0.0055 ± 0.0035 | 0.008 ± 0.0042 | 0.002 ± 0.037 | -0.0175 ± 0.035 | -0.092 ± 0.014 | -0.011 ± 0.017 | -0.0125 ± 0.0021 | -0.05 ± 0.0028 | 0.0025 ± 0.019 | -0.004 ± 0.016 | -0.0125 ± 0.04 | 0 ± 0.0042 | -0.0075 ± 0.00071 | -0.0065 ± 0.019
LPS:CD141/Thrombomodulin | 0.0115 ± 0.019 | -0.015 ± 0.025 | -0.0215 ± 0.0021 | 0.0025 ± 0.023 | 0.0085 ± 0.012 | 0.0065 ± 0.026 | 0.007 ± 0.017 | 0.0245 ± 0.025 | 0.001 ± 0.04 | -0.0235 ± 0.0078 | -0.02 ± 0.013 | -0.049 ± 0.0085 | 0.0065 ± 0.028 | -0.0225 ± 0.028 | -0.0215 ± 0.023 | -0.025 ± 0.044 | 0.001 ± 0.028 | 0.0005 ± 0.037 | 0.0005 ± 0.042
LPS:CD142/Tissue Factor | -0.0155 ± 0.032 | -0.0245 ± 0.087 | -0.006 ± 0.088 | 0.003 ± 0.083 | 0.0205 ± 0.021 | 0.0045 ± 0.011 | 0.015 ± 0.0071 | 0.031 ± 0.054 | -0.029 ± 0.03 | -0.0375 ± 0.083 | -0.023 ± 0.0014 | -0.01 ± 0.0099 | 0.032 ± 0.033 | -0.0095 ± 0.019 | -0.004 ± 0.0028 | -0.002 | -0.008 ± 0.0014 | -0.0175 ± 0.015 | 0.0065 ± 0.025
